This is an account of results in publication PMC7377239, “Cardiovascular Effects of Polychlorinated Biphenyls and Their Major Metabolites” (Environmental Health Perspectives, 2020).

Where a name gives a salt, the structure may show the parent alone. Read-outs that look alike come from different tables or passages of the source.

Series [1] deals with iCell cardiomyocytes (human iPSC-derived cardiomyocytes). Briefly: High-content imaging of cytotoxicity and mitochondrial integrity in iPSC-CMs. The series is classed as cell-based. Conditions: for minimal effective concentration: Homo sapiens, Cardiomyocyte, cardiomyocytes (cm). In a few lines:
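Cardiomyocytes grown on gelatinized 384-well plates received fresh medium on the experiment day and were then exposed to chemicals at 0.01–100μM. Nuclei and mitochondria were labeled with Hoechst 33342 and MitoTracker™ Orange, then fixed, and imaged on an ImageXpress® Micro Confocal system. Four-parameter logistic concentration–response fits in R, with a one-standard-deviation vehicle cutoff, gave point-of-departure values.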

Series [2] deals with HUVECs. Briefly: High-content imaging cytotoxicity in HUVECs, 24 h. It counts as cell-based, human. The settings on record: Homo sapiens, HUVEC, 24 h, HUVEC, 24 hr. The procedure, abridged: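 Read-out: multiwavelength high-content imaging of Hoechst 33342, MitoTracker Orange and calcein AM after 24 h compound exposure of confluent HUVEC monolayers. POD values were set using a one-SD cutoff from vehicle (0.5% DMSO) means; with no concentration–response, 100μM was assigned as no observable adverse effect level.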

Where [3] appears, read: 1.5 h, cam, 90 min, read-out: POD cm.cam.90min.
Setting [4] is: 1.5 h, mii, 90 min, read-out: POD cm.mii.90min.
The mark [5] stands for this setting: 1.5 h, mito, 90 min, read-out: POD cm.mito.90min.
The mark [6] stands for this setting: 1.5 h, tc, 90 min, read-out: POD cm.tc.90min.
The mark [7] stands for this setting: 24 h, cam, 24 hrs, read-out: POD cm.cam.24hrs.
[8] abbreviates: 24 h, mii, 24 hrs, read-out: POD cm.mii.24hrs.
Setting [9] is: 24 h, mito, 24 hrs, read-out: POD cm.mito.24hrs.
Setting [10] is: 24 h, tc, 24 hrs, read-out: POD cm.tc.24hrs.
[11] abbreviates: cyto, read-out: POD huvec.cyto.24hr.
Setting [12] is: mito, read-out: POD huvec.mito.24hr.
Where [13] appears, read: mitoint, read-out: POD huvec.mitoint.24hr.
Where [14] appears, read: nma, read-out: POD huvec.nma.24hr.
[15] abbreviates: tc, read-out: POD huvec.tc.24hr.

For `COc1ccc(-c2ccc(Cl)cc2)cc1` [4'-OMe-PCB 3, 4′-methoxy-4-chlorobiphenyl], the minimal effective concentration in series [1] (setting [3]) was found to be 100 µM; in series [1] (setting [4]) it was 100 µM; in series [1] (setting [5]), 100 µM; in series [1] (setting [6]), 100 µM; in series [1] (setting [7]), 82.9 µM; in series [1] (setting [8]) it was 100 µM. Further, the minimal effective concentration in series [1] (setting [9]) was determined as 100 µM; in series [1] (setting [10]), 100 µM; in series [2] (setting [11]), 8.6 µM; in series [2] (setting [12]), 5.97 µM; in series [2] (setting [13]), 32 µM; in series [2] (setting [14]) it was 1.41 µM. In series [2] (setting [15]), the minimal effective concentration was 8.6 µM. Also, the “effect on cell viability in iPSC-CMs” value in series [1] (iPSC-CMs, 0.01-100 μM, 90 min and 24 h) is reported as “little effect on cell viability”.
`O=S(=O)(O)Oc1ccc(-c2ccc(Cl)cc2)cc1` [4'-PCB 3 sulfate]: the minimal effective concentration in series [1] (setting [3]) was found to be 100 µM; in series [1] (setting [4]) it was 100 µM; in series [1] (setting [5]), 100 µM; in series [1] (setting [6]) it was 100 µM; in series [1] (setting [7]) it was 100 µM; in series [1] (setting [8]), 53.5 µM. Further, the minimal effective concentration in series [1] (setting [9]), in series [1] (setting [10]), in series [2] (setting [11]), in series [2] (setting [12]), in series [2] (setting [13]) and in series [2] (setting [14]) was 100 µM each time. The minimal effective concentration in series [2] (setting [15]) turned out to be 100 µM.
